Laboratory results published in patent publication US8236279B2, “Bisaminoethanethiol-targeting ligand conjugates and compositions” (priority 1999, dated 2012).
Entries after “also recorded” stand apart in the source; their conditions may differ.

How the values were obtained:
[1] = tested on: Breast Tumor-Bearing Rats (13762 tumor cell line); test: Tissue distribution (biodistribution) studies in breast tumor-bearing rats; conditions: for Biodistribution: Brain / Biodistribution: Heart / Biodistribution: Spleen / Tumor/Blood ratio / Tumor/Liver ratio / Tumor/Muscle ratio: Table 9; for tumor/blood and tumor/muscle count density ratios, course over time: […] (so in the source)
Method: Studies performed 14 to 17 days after implantation when tumors reached approximately 1 cm diameter. Animals were anesthetized with ketamine (10-15 mg/rat, intraperitoneally) before each procedure.
The injected mass of each ligand was 10 μg per rat. At 20 min, 1, 2 and 4 h following administration of the radiopharmaceuticals, the anesthetized animals were sacrificed and the tumor and selected tissues were excised, weighed and counted for radioactivity by a gamma counter (Packard Instruments, Downers Grove, Ill.). The biodistribution of tracer in each sample was calculated as percentage of the injected dose per gram of tissue wet weight (% ID/g). Counts from a diluted sample of the original injectate were used for reference. Tumor/nontarget tissue count density ratios were calculated from the corresponding % ID/g values. Student-t test was used to assess the significance of differences between two groups.
Studies performed 14 to 17 days after implantation when tumors reached approximately 1 cm diameter. Rats were anesthetized with ketamine (10-15 mg/rat, intraperitoneally) before each procedure.
In tissue distribution studies, each animal was injected intravenously with 370-550 KBq of ^99mTc-EC-MN or ^99mTc-EC (n=3/time point). The injected mass of ^99mTc-EC-MN was 10 μg per rat. At 0.5, 2 and 4 hrs following administration of the radiotracers, the rats were sacrificed and the selected tissues were excised, weighed and counted for radioactivity. The biodistribution of tracer in each sample was calculated as percentage of the injected dose per gram of tissue wet weight (% ID/g). Tumor/nontarget tissue count density radios were calculated from the corresponding % ID/g values. […] Student t-test was used to assess the significance of differences between groups.
(§1) At 0.5, 2 and 4 hrs following administration of the radiotracers, the rats were sacrificed and the selected tissues were excised, weighed and counted for radioactivity. The biodistribution of tracer in each sample was calculated as percentage of the injected dose per gram of tissue wet weight (% ID/g). Tumor/nontarget tissue count density ratios were calculated from the corresponding % ID/g values. Student t-test was used to assess the significance of differences between groups.
as §1, with “hours” for “hrs”, “values.” for “values. Student t-test was used to assess the significance of differences between groups.”
Studies were performed 14 to 17 days after implantation when tumors reached approximately 1 cm diameter. Rats were anesthetized with ketamine (10-15 mg/rat, intraperitoneally) before each procedure.
In tissue distribution studies, each animal was injected intravenously with 10-20 μCi (per rat) or 1-2 μCi (per mouse) of ^99mTc-EC or ^99mTc-EC-DG (n=3/time point). The injected mass of ^99mTc-EC-DG was 1 mg per rat. At 0.5, 2 and 4 hours following administration of the radiotracers, the rodents were sacrificed and the selected tissues were excised, weighed and counted for radioactivity. The biodistribution of tracer in each sample was calculated as percentage of the injected dose per gram of tissue wet weight (% ID/g). Tumor/nontarget tissue count density ratios were calculated from the corresponding % ID/g values.

[2] = tested on: breast tumor-bearing rats; test: Scintigraphic (gamma camera) imaging studies in tumor-bearing rats; format: in vivo; conditions: different time points (0.5-4 hrs) after i.v. injection
[3] = tested on: two lung cancer cell lines and one breast cell line (A549, H1299, 13762); test: Effect of glucose on cellular uptake; format: cell-based
Method: Neomycin is known to influence glucose absorption (Rogers et al., 1968; Fanciulli et al., 1994). […] After incubation, the cells were washed with phosphate buffered saline 3 times and followed by trypsin to lose the cells. The cells were then counted by a gamma counter.

[4] = tested on: breast (13762) and lung (A549) cancer cells; test: Effect of d- and l-glucose on cellular uptake; format: cell-based; conditions: 1-2.0 mg/well, 2 hours incubation
Method: To evaluate if the uptake of ^99mTc-EC-deoxyglucose is mediated via d-glucose mechanism, d- and l-glucose (1 mg and 2.0 mg) were added to, each well containing either breast or lung cancer cells (50,000/0.5 ml/well), along with 2 μCi of ^99mTc-EC-deoxyglucose and ^18F-FDG. After 2 hours incubation, the cells were washed with phosphate buffered saline 3 times and followed by trypsin to lose the cells. The cells were counted by a gamma counter.

[5] = list continues over wrapped lines of the table; cited from earlier work
[6] = Effect of loading on blood glucose level in normal rats; format: in vivo, Fischer 344 rats; conditions: insulin (5 units) after 30 minutes
Method: The blood glucose level (mg/dl) was determined by a glucose meter (Glucometer DEX, Bayer Corporation, Elkhart, Ind.). Prior to the study, the baseline of blood glucose level was obtained. […] In a separate experiment, a group of rats was administered EC-deoxyglucose and FDG. Insulin (5 units) was administered after 30 minutes.

Water solubility = format: physicochemical
hexokinase = test: Hexokinase assay (glucose phosphorylation); format: biochemical; conditions: UV wavelength 340 nm
Method: To determine if EC-DG mimics glucose phosphorylation, a hexokinase assay was conducted. Using a ready made kit (Sigma Chemical Company), EC-DG, glucosamine and glucose (standard) were assayed at UV wavelength 340 nm.

[7] = tested on: A549 lung cancer cell line; test: In vitro cellular uptake assay; format: cell-based, human; conditions: 2 μCi per well, 80,000 cells, incubation 0.5-4 hours
Method: After incubation at 0.5-4 hours, the cells were washed with phosphate buffered saline 3 times and followed by trypsin to lose the cells.
In vitro cellular uptake assay was conducted by using a human lung cancer cell line (A549). Two μCi of ^99mTc-EC-DG and ^18F-FDG were added to wells containing 80,000 cells each. After incubation at 0.5-4 hours, the cells were washed with phosphate buffered saline 3 times and followed by trypsin to lose the cells. The cells were then counted by a gamma counter.

[8] = tested on: patients (3 brain tumors and 2 lung diseases); test: Preliminary clinical imaging studies in patients (brain tumors, lung diseases); format: in vivo, human; conditions: images 1-2 hours post-administration
Method: Scintigraphic images, using a gamma camera equipped with low-energy, parallel-hole collimator, were obtained 0.5, 2 and 4 hours after i.v. injection of 100 μCi of the radiotracer. The animal model used was breast tumor-bearing rats. […] Preliminary clinical studies were conducted in 5 patients (3 brain tumors and 2 lung diseases).

## [O]=[99Tc](=[O])(=[O])[O-] [^99mTc Pertechnetate]
[1]; 2 Hour
  Biodistribution: Brain: 0.022 ± 0.002 % ID/g
  Biodistribution: Heart: 0.145 ± 0.015 % ID/g
  Biodistribution: Spleen: 0.187 ± 0.014 % ID/g
  Tumor/Blood ratio: 0.497 ± 0.073
  Tumor/Liver ratio: 1.084 ± 0.115
  Tumor/Muscle ratio: 4.302 ± 0.093
[1]; 4 Hour
  Biodistribution: Brain: 0.031 ± 0.009 % ID/g
  Biodistribution: Heart: 0.166 ± 0.012 % ID/g
  Biodistribution: Spleen: 0.225 ± 0.017 % ID/g
  Tumor/Blood ratio: 0.597 ± 0.144
  Tumor/Liver ratio: 0.865 ± 0.270
  Tumor/Muscle ratio: 6.689 ± 1.458
[1]; 30 Min.
  Biodistribution: Brain: 0.038 ± 0.014 % ID/g
  Biodistribution: Heart: 0.275 ± 0.089 % ID/g
  Biodistribution: Spleen: 0.331 ± 0.108 % ID/g
  Tumor/Blood ratio: 0.472 ± 0.093
  Tumor/Liver ratio: 1.084 ± 0.023
  Tumor/Muscle ratio: 4.788 ± 0.833

## O=C(O)[C@@H]1C[S][99Tc]23(=[O])[S]C[C@@H](C(=O)O)[N]2CC[N]13 [^99mTc-EC, ^99mTc-L,L-ethylenedicysteine]
[1]; 20 min-4 h
  tumor/blood count density ratios, course over time: decreased
[1]
  tumor/blood and tumor/muscle count density ratios, course over time: did not alter
[1]; same time period (0.5-4 hours)
  tumor-to-blood and tumor-to-muscle values, course over time: time-dependent decrease
[2]
  Scintigraphic images: visualization of tumor / tumor uptake: no apparent tumor uptake; also recorded: less tumor uptake
[3]
  cellular uptake of control: no uptake

## O=[N+]([O-])c1nccn1CC(O)C[18F] (centres unmarked) [[^18F]FMISO]
[1]; 30 min, 2 and 4 hrs post-injection
  tumor-to-blood uptake ratio, comparison among [18F]FMISO, [131I]IMISO and 99mTc-EC-MN: highest
[1]
  tumor/blood and tumor/muscle count density ratios, course over time: gradually increased

## OC[C@H]1OC(O)[C@H]([18F])[C@@H](O)[C@@H]1O (some centres unmarked) [^18F-FDG]
[4]
  effect of d-glucose on cellular uptake: decreased uptake
  effect of l-glucose on cellular uptake: no influence

## COc1cc(NS(C)(=O)=O)ccc1Nc1c2ccccc2nc2ccccc12 [Amsacrine]
[5]
  Delayed toxicity: Bone marrow depression;

## OC[C@H]1OC(O)[C@H](F)[C@@H](O)[C@@H]1O (some centres unmarked) [FDG]
[6]
  increased blood glucose level on co-administration with insulin: suppressed

## L,L-ethylenedicysteine [EC]
Water solubility
  water solubility: water soluble

## OC[C@H]1OC(O)[C@H](O)[C@@H](O)[C@@H]1O (some centres unmarked) [Glucose]
hexokinase
  hexokinase assay: positive

## O=[N+]([O-])c1nccn1CC(O)C[131I] (centres unmarked) [[^131I]IMISO]
[1]; 2 and 4 hrs postinjection, (p<0.05) as printed
  Tumor/blood and tumor/muscle ratios, 99mTc-EC-MN versus [131I]IMISO: not significantly different
[1]
  tumor/blood and tumor/muscle count density ratios, course over time: gradually increased

## O=C(N[C@H]1C(O)O[C@H](CO)[C@@H](O)[C@@H]1O)[C@@H]1C[S][Tc]23(=[O])[S]C[C@@H](C(=O)N[C@H]4C(O)O[C@H](CO)[C@@H](O)[C@@H]4O)[N]2CC[N]13 (some centres unmarked) [^99mTc-EC-DG]
[1]; 0.5-4 hours
  tumor-to tissue ratios, course over time, compared to 99mTc-EC and free technetium: increased as a function of time
[2]
  Scintigraphic images: visualization of tumor / tumor uptake: visualized well
[2]; listed as 99mTc-EC-deoxyglucose
  Scintigraphic images: visualization of tumor / tumor uptake: well visualized
[7]
  cellular uptake: comparable to FDG
[4]
  effect of d-glucose on cellular uptake: decreased uptake
  effect of l-glucose on cellular uptake: no influence
[8]
  differentiation of benign versus malignant tumors: able to differentiate benign versus malignant tumors
  uptake in benign meningioma: no focal intensed uptake; also recorded: poor uptake
  uptake in lung tumor: focal intensed uptake; also recorded: high uptake
  uptake in malignant astrocytoma: high uptake
  uptake in patient with TB: no focal intensed uptake; also recorded: Poor uptake

## CCC1(c2ccc(N)cc2)CCC(=O)NC1=O (centres unmarked) [Aminogiutethimide]
[5]
  Acute Toxicity: Drowsiness; nausea; dizziness; rash
  Delayed toxicity: Hypothryroidism (rare); bone

## Aldesleukin
[5]
  Acute Toxicity: Fever; fluid retention; hypertension;
  Delayed toxicity: Neuropsychiatric disorders;

## N[C@H]1C(O)O[C@H](CO)[C@@H](O)[C@@H]1O (some centres unmarked) [glucosamine]
hexokinase
  hexokinase assay: positive

B1: Asparaginase: anticancer drug listed in Table 2 (protein, UniProt P00805 23-348, looked up)
L-asparaginase 2: LPNITILATGGTIAGGGDSATKSNYTVGKVGVENLVNAVPQLKDIANVKGEQVVNIGSQDMNDNVWLTLAKKINTDCDKTDGFVITHGTDTMEETAYFLDLTVKCDKPVVMVGAMRPSTSMSADGPFNLYNAVVTAADKASANRGVLVVMNDTVLDGRDVTKTNTTDVATFKSVNYGPLGYIHNGKIDYQRTPARKHTSDTPFDVSKLNELPKVGIVYNYANASDLPAKALVDAGYDGIVSAGVGNGNLYKSVFDTLATAAKTGTAVVRSSRVPTGATTQDAEVDDAKYGFVASGTLNPQKARVLLQLALTQTKDPQQIQQIFNQY
[5]
  Acute Toxicity: Nausea and vomiting; fever; chills;
